From patent US9096534B2, “Pyridazinone compound and use thereof” (SUMITOMO CHEMICAL COMPANY, LIMITED, priority 2006, dated 2015)

What was measured:
Apera spica-venti = experiment: Pre-emergence treatment test in dry field; assay type: in vivo; settings: 500 g/ha; sprayed to soil surface after sowing; three weeks after treatment; 0 = no effect, 10 = complete death
Procedure: A plastic container (32 cm×22 cm×8 cm in height) was filled with soil sterilized by steam, onto which seeds of Apera spica-venti were sowed and covered with soil about 0.5 cm high. A prescribed dosage of a dilute liquid formulation comprising Compound I-a-1 was sprayed to the soil surface uniformly. The dilute liquid formulation was prepared by the method similar to that in Test example 1. The plants after treatment with the liquid formulation were grown in a greenhouse and three weeks after the treatment, the efficacy of the compound against Apera spica-venti was visually evaluated by rating in eleven levels from 0 to 10 similarly to Test example 1.
The other present compounds and Compound A as a comparative example were similarly tested.

Lolium multiflorum = experiment: Post-emergence treatment test in dry field; assay type: in vivo; settings: 500 g/ha; foliar spray at first to second leaf stage; 20 days after treatment; 0 = no effect, 10 = complete death
Procedure: A plastic cup with a diameter of 8 cm and a depth of 6.5 cm was filled with commercially available soil, onto which seeds of Lolium multiflorum were sowed, covered with soil about 0.5 cm high and then grown in a greenhouse. When the plants were grown in first to second leaf stage, a prescribed dosage of a dilute liquid formulation comprising Compound I-a-1 was sprayed to whole plants uniformly. The dilute liquid formulation was prepared by dissolving a prescribed amount of Compound I-a-1 in a dimethylformamide solution (2%) of Tween 20 (polyoxyethylene sorbitan fatty acid ester, from MP Biomedicals, Inc.) and then diluting with deionized water. The plants after treatment with the liquid formulation were grown in a greenhouse and 20 days after the treatment, the efficacy of the compound against Lolium multiflorum was visually evaluated by rating in eleven levels from 0 to 10 (assigned as 0 for no effect and 10 for complete death while values falling in between these values were rated from 1 to 9 levels accordingly).
The other present compounds and Compound A described in J. Heterocycl. Chem., vol. 42, pp. 427-435 (2005) as a comparative example were similarly tested.

SMILES: Cc1ccccc1-c1c(O)cnn(C)c1=O [Compound A]
- efficacy against Apera spica-venti, visually evaluated by rating in eleven levels from 0 to 10 (Apera spica-venti): 1
- efficacy against Lolium multiflorum, visually evaluated by rating in eleven levels from 0 to 10 (Lolium multiflorum): 1
